# Measured values from patent publication US8921362B2, “6,7-dialkoxy quinazoline derivatives and methods of treating drug resistant and other tumors” (Natco Pharma Limited, priority 2008, dated 2014).
# What was measured:
# ERK5 = target: T1, ERK5 (Homo sapiens, UniProt Q13164); assay: KinomeScan; type: binding; conditions: read-out: % Ctrl @ 10000 nM
# T1 construct: purchased Ambit Biosciences Corp; host or cells: T7 phage in E. coli host derived from BL21
# In short: (§1)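 Each kinase was expressed as a T7 phage fusion, with lysates produced in log-phase BL21-derived E. coli. Captured phage after compound competition was measured by qPCR.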
# SRMS = target: T2, SRMS (Homo sapiens, UniProt Q9H3Y6); assay: KinomeScan; type: binding; conditions: read-out: % Ctrl @ 10000 nM
# T2 construct: host or cells: T7 phage grown in E. coli (BL21-derived)
# In short: as §1
# FGFR2 = target: T3, FGFR2 (Homo sapiens, UniProt P21802); assay: KinomeScan; type: binding; conditions: read-out: % Ctrl @ 10000 nM
# T3 construct: host or cells: T7 phage in E. coli host derived from BL21
# In short: as §1
# PAK7 = target: T4, PAK7 (Homo sapiens, UniProt Q9P286); assay: KinomeScan; type: binding; conditions: read-out: % Ctrl @ 10000 nM
# T4 construct: host or cells: E. coli host derived from BL21, infected with T7 phage
# In short: as §1
# FLT3 = target: T5, FLT3 (Homo sapiens, UniProt P36888); assay: KinomeScan; type: binding; conditions: read-out: % Ctrl @ 10000 nM
# T5 construct: host or cells: T7 phage in E. coli host derived from BL21
# In short: as §1
# AURKC = target: T6, AURKC (Homo sapiens, UniProt Q9UQB9); assay: KinomeScan; type: binding; conditions: read-out: % Ctrl @ 10000 nM
# T6 construct: host or cells: E. coli host derived from BL21
# T6 sequence (Q9UQB9 whole entry): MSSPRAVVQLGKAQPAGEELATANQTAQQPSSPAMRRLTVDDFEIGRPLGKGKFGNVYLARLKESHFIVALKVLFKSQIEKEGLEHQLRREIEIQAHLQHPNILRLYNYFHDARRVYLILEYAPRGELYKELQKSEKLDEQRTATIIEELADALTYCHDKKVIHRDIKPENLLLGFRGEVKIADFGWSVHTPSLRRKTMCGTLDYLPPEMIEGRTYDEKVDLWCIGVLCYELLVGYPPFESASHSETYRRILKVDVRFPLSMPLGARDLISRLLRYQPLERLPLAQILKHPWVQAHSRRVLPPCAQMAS
# In short: as §1
# [1] = target: T7, JAK1(JH1domain-catalytic) (Homo sapiens, UniProt P23458); assay: KinomeScan; type: binding; conditions: read-out: % Ctrl @ 10000 nM
# T7 construct: JAK1(JH1domain-catalytic); host or cells: T7 phage grown in E. coli host derived from BL21
# T7 sequence (P23458 875-1153 limits assumed): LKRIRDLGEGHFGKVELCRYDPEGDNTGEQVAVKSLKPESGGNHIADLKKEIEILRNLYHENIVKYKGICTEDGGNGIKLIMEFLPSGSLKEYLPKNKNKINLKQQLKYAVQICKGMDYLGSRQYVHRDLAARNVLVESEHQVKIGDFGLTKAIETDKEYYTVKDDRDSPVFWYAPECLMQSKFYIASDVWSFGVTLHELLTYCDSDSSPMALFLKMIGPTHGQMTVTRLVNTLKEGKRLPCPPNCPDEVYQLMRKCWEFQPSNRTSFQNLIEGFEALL
# In short: as §1
# RIPK4 = target: T8, RIPK4 (Homo sapiens, UniProt P57078); assay: KinomeScan; type: binding; conditions: read-out: % Ctrl @ 10000 nM
# T8 construct: host or cells: E. coli host derived from BL21, T7 phage display
# In short: as §1
# PIK3C2B = target: T9, PIK3C2B (Homo sapiens, UniProt O00750); assay: KinomeScan; type: binding; conditions: read-out: % Ctrl @ 10000 nM
# T9 construct: host or cells: E. coli host derived from BL21, infected with T7 phage
# In short: as §1
# RIOK1 = target: T10, RIOK1 (Homo sapiens, UniProt Q9BRS2); assay: KinomeScan; type: binding; conditions: read-out: % Ctrl @ 10000 nM
# T10 construct: host or cells: E. coli host derived from BL21, T7 phage display
# In short: as §1
# BLK = target: T11, BLK (Homo sapiens, UniProt P51451); assay: KinomeScan; type: binding; conditions: read-out: % Ctrl @ 10000 nM
# T11 construct: host or cells: E. coli host derived from BL21
# In short: as §1
# AMPK-alpha2 = target: T12, AMPK-alpha2 (Homo sapiens, UniProt P54646); assay: KinomeScan; type: binding; conditions: read-out: % Ctrl @ 10000 nM
# T12 construct: host or cells: E. coli (BL21-derived), T7 phage lysate
# T12 sequence (P54646 whole entry): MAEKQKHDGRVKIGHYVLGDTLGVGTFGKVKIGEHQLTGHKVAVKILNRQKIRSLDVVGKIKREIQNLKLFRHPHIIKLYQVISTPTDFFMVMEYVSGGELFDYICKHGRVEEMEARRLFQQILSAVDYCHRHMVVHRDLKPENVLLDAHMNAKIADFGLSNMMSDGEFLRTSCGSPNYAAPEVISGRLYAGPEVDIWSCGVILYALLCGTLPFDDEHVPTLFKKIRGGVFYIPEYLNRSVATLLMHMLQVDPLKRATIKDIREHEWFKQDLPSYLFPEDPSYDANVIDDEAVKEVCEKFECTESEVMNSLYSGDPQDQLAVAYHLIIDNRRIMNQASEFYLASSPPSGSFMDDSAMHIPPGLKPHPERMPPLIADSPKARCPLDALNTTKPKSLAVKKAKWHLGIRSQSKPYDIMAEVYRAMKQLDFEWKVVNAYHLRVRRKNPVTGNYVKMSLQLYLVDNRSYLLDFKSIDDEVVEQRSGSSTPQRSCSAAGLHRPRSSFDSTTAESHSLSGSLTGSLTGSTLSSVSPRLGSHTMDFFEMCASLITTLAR
# In short: as §1
# MAPKAPK5 = target: T13, MAPKAPK5 (Homo sapiens, UniProt Q8IW41); assay: KinomeScan; type: binding; conditions: read-out: % Ctrl @ 10000 nM
# T13 construct: host or cells: E. coli host derived from the BL21 strain, infected with T7 phage
# In short: as §1
# TESK1 = target: T14, TESK1 (Homo sapiens, UniProt Q15569); assay: KinomeScan; type: binding; conditions: read-out: % Ctrl @ 10000 nM
# T14 construct: host or cells: T7 phage grown in E. coli (BL21-derived)
# In short: as §1
# CSNK1E = target: T15, CSNK1E (Homo sapiens, UniProt P49674); assay: KinomeScan; type: binding; conditions: read-out: % Ctrl @ 10000 nM
# T15 construct: host or cells: T7 phage in E. coli host derived from BL21
# In short: as §1
# PRKX = target: T16, PRKX (Homo sapiens, UniProt P51817); assay: KinomeScan; type: binding; conditions: read-out: % Ctrl @ 10000 nM
# T16 construct: host or cells: E. coli host derived from BL21, T7 phage display
# T16 sequence (P51817 whole entry): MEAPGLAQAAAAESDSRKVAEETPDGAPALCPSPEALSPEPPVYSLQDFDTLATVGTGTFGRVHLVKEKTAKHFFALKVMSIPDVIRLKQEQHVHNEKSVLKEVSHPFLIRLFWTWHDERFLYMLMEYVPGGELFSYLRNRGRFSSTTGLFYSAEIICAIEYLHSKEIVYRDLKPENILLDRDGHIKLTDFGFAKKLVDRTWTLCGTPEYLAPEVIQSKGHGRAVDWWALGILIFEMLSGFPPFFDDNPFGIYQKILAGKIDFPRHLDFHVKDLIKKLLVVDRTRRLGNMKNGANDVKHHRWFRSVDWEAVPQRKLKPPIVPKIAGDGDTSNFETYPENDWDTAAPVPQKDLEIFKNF
# In short: as §1
# EPHA6 = target: T17, EPHA6 (Homo sapiens, UniProt Q9UF33); assay: KinomeScan; type: binding; conditions: read-out: % Ctrl @ 10000 nM
# T17 construct: purchased Ambit Biosciences Corp; host or cells: T7 phage in E. coli host derived from BL21
# In short: as §1
# MAP4K5 = target: T18, MAP4K5 (Homo sapiens, UniProt Q9Y4K4); assay: KinomeScan; type: binding; conditions: read-out: % Ctrl @ 10000 nM
# T18 construct: host or cells: E. coli host derived from the BL21 strain, infected with T7 phage
# In short: as §1
# CAMKK2 = target: T19, CAMKK2 (Homo sapiens, UniProt Q96RR4); assay: KinomeScan; type: binding; conditions: read-out: % Ctrl @ 10000 nM
# T19 construct: host or cells: T7 phage in E. coli host derived from BL21
# In short: as §1
# MUSK = target: T20, MUSK (Homo sapiens, UniProt O15146); assay: KinomeScan; type: binding; conditions: read-out: % Ctrl @ 10000 nM
# T20 construct: host or cells: T7 phage grown in E. coli host derived from BL21
# T20 sequence (O15146 24-869): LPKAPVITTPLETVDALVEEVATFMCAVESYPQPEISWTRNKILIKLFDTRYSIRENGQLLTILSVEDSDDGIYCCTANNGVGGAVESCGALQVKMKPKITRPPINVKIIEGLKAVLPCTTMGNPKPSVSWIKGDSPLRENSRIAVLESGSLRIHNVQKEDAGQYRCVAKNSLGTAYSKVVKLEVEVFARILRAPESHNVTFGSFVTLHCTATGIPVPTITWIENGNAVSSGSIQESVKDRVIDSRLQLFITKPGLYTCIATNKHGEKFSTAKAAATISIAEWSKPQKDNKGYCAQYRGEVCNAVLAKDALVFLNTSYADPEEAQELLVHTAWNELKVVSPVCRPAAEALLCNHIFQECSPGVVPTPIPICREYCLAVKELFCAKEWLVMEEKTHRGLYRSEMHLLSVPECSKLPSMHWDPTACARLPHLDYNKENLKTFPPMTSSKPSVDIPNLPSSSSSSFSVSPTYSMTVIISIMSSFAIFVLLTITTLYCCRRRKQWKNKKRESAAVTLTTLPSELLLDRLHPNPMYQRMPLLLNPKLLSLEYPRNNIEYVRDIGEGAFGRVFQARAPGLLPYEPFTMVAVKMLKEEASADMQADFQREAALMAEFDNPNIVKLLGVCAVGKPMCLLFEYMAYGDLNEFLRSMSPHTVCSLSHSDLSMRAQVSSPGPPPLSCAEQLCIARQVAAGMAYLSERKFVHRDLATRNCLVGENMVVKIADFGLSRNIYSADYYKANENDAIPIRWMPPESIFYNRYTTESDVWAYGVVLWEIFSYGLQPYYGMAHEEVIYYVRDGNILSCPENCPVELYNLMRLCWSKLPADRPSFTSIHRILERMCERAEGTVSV
# In short: as §1
# MLK2 = target: T21, MLK2 (Homo sapiens, UniProt Q02779); assay: KinomeScan; type: binding; conditions: read-out: % Ctrl @ 10000 nM
# T21 construct: host or cells: T7 phage grown in E. coli host derived from BL21
# T21 sequence (Q02779 whole entry): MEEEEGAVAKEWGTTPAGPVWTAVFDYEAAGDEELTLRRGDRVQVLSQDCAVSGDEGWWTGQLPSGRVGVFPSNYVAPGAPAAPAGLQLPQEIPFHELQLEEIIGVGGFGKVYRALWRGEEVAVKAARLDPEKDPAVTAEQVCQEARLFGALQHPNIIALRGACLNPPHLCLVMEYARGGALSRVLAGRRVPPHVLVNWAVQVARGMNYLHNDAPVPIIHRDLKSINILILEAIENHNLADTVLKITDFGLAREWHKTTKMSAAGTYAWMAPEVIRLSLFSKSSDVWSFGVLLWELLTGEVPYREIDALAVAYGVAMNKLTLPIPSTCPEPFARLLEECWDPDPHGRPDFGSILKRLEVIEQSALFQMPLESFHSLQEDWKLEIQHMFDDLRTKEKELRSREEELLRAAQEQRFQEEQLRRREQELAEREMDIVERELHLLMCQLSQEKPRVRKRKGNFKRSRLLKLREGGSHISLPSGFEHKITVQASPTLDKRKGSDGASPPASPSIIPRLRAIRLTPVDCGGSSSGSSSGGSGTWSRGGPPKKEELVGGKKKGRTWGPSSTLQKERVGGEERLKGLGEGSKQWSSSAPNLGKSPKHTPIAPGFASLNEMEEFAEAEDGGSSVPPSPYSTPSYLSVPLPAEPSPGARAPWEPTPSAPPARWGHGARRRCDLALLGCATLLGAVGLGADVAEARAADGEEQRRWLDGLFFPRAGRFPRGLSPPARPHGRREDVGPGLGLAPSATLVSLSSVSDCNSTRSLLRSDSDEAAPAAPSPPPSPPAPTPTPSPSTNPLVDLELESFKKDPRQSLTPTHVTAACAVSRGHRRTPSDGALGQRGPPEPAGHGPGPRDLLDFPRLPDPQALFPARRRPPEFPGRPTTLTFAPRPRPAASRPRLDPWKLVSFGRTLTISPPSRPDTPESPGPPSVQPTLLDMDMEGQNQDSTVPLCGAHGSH
# In short: as §1
# NEK5 = target: T22, NEK5 (Homo sapiens, UniProt Q6P3R8); assay: KinomeScan; type: binding; conditions: read-out: % Ctrl @ 10000 nM
# T22 construct: host or cells: T7 phage grown in E. coli host derived from BL21
# In short: as §1
# PKN1 = target: T23, PKN1 (Homo sapiens, UniProt Q16512); assay: KinomeScan; type: binding; conditions: read-out: % Ctrl @ 10000 nM
# T23 construct: host or cells: T7 phage in E. coli host derived from BL21
# T23 sequence (Q16512 whole entry): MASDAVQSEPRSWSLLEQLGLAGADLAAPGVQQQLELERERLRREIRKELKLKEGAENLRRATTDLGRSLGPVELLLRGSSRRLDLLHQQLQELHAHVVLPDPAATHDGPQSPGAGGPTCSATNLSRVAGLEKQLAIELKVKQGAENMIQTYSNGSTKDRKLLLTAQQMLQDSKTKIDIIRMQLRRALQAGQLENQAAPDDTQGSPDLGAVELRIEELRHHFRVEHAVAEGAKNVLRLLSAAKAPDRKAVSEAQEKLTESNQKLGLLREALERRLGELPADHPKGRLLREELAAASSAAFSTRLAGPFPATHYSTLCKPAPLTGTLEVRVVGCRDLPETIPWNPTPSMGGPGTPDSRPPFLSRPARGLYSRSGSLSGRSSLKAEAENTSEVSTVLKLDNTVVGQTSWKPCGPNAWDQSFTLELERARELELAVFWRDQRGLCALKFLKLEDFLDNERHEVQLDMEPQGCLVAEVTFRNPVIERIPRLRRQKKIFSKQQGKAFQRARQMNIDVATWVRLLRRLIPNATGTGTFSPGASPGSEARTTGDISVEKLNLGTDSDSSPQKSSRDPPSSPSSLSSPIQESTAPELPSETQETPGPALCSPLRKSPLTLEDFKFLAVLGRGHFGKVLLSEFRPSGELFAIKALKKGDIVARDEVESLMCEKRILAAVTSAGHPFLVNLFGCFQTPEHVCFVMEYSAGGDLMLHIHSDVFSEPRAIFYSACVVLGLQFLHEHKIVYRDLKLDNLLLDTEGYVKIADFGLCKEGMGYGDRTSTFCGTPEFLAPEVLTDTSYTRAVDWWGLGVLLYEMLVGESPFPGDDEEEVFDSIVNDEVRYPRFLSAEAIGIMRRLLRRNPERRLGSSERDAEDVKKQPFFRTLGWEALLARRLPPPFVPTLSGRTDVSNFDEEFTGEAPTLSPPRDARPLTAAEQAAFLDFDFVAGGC
# In short: as §1
# ERK3 = target: T24, ERK3 (Homo sapiens, UniProt Q16659); assay: KinomeScan; type: binding; conditions: read-out: % Ctrl @ 10000 nM
# T24 construct: purchased Ambit Biosciences Corp; host or cells: T7 phage in E. coli host derived from BL21
# T24 sequence (Q16659 whole entry): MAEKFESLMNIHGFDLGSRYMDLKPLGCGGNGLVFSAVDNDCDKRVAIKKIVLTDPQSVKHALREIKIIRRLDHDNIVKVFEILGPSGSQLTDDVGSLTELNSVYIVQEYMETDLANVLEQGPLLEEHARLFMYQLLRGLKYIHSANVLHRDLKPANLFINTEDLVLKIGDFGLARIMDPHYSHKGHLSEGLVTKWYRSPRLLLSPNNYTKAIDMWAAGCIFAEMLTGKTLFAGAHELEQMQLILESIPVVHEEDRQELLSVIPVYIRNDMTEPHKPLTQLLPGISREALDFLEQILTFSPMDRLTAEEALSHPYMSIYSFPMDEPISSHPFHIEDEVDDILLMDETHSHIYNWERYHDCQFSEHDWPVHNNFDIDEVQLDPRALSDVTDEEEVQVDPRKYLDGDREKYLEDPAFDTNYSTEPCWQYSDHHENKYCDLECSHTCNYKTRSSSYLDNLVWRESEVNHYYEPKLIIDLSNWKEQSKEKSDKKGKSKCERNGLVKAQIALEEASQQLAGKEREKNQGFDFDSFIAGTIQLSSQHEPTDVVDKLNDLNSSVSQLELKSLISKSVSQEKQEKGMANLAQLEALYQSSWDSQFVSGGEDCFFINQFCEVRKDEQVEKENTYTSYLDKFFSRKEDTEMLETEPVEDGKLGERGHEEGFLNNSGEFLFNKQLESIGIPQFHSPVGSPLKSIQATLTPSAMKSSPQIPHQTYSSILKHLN
# In short: as §1
# [2] = target: T25, RPS6KA4(Kin.Dom.-1-N-terminal) (Homo sapiens, UniProt O75676); assay: KinomeScan; type: binding; conditions: read-out: % Ctrl @ 10000 nM
# T25 construct: RPS6KA4(Kin.Dom.-1-N-terminal); host or cells: E. coli host derived from BL21, T7 phage display
# In short: as §1
# PIK3CA = target: T26, PIK3CA (Homo sapiens, UniProt P42336); assay: KinomeScan; type: binding; conditions: read-out: % Ctrl @ 10000 nM
# T26 construct: host or cells: E. coli host derived from BL21, infected with T7 phage
# In short: as §1
# JNK2 = target: T27, JNK2 (Homo sapiens, UniProt P45984); assay: KinomeScan; type: binding; conditions: read-out: % Ctrl @ 10000 nM
# T27 construct: host or cells: T7 phage grown in E. coli host derived from BL21
# In short: as §1
# DLK = target: T28, DLK (Homo sapiens, UniProt Q12852); assay: KinomeScan; type: binding; conditions: read-out: % Ctrl @ 10000 nM
# T28 construct: purchased Ambit Biosciences Corp (KinomeScan); host or cells: T7 phage in E. coli host derived from BL21
# In short: as §1
# CAMK2G = target: T29, CAMK2G (Homo sapiens, UniProt Q13555); assay: KinomeScan; type: binding; conditions: read-out: % Ctrl @ 10000 nM
# T29 construct: host or cells: E. coli host derived from BL21
# In short: as §1
# PIM3 = target: T30, PIM3 (Homo sapiens, UniProt Q86V86); assay: KinomeScan; type: binding; conditions: read-out: % Ctrl @ 10000 nM
# T30 construct: host or cells: T7 phage in E. coli host derived from BL21
# In short: as §1
# DCAMKL1 = target: T31, DCAMKL1 (Homo sapiens, UniProt O15075); assay: KinomeScan; type: binding; conditions: read-out: % Ctrl @ 10000 nM
# T31 construct: purchased Ambit Biosciences Corp (KinomeScan); host or cells: T7 phage in E. coli host derived from BL21
# In short: as §1
# hERG = hERG (Homo sapiens, UniProt Q12809); assay: hERG Ikr (tail) current, whole cell patch-clamp in CHO cells; conditions: 10 μM
structure (smiles),measurement,setting,value
"C#Cc1cccc(Nc2ncnc3cc(OC)c(OCCCN4CCOCC4)cc23)c1 [NRC-2694, N-(3-ethynylphenyl)-7-methoxy-6-[3-(4-morpholinyl)propoxy]-4-quinazolinamine]",remaining binding at 10 µM,ERK5,90%
same,remaining binding at 10 µM,SRMS,100%
same,remaining binding at 10 µM,FGFR2,100%
same,remaining binding at 10 µM,PAK7,63%
same,remaining binding at 10 µM,FLT3,49%
same,remaining binding at 10 µM,AURKC,47%
same,remaining binding at 10 µM,[1],15%
same,remaining binding at 10 µM,RIPK4,96%
same,remaining binding at 10 µM,PIK3C2B,93%
same,remaining binding at 10 µM,RIOK1,36%
same,remaining binding at 10 µM,BLK,4.4%
same,remaining binding at 10 µM,AMPK-alpha2,61%
same,remaining binding at 10 µM,MAPKAPK5,79%
same,remaining binding at 10 µM,TESK1,83%
same,remaining binding at 10 µM,CSNK1E,9.6%
same,remaining binding at 10 µM,PRKX,100%
same,remaining binding at 10 µM,EPHA6,25%
same,remaining binding at 10 µM,MAP4K5,23%
same,remaining binding at 10 µM,CAMKK2,60%
same,remaining binding at 10 µM,MUSK,100%
same,remaining binding at 10 µM,MLK2,83%
same,remaining binding at 10 µM,NEK5,94%
same,remaining binding at 10 µM,PKN1,50%
same,remaining binding at 10 µM,ERK3,10%
same,remaining binding at 10 µM,[2],84%
same,remaining binding at 10 µM,PIK3CA,100%
same,remaining binding at 10 µM,JNK2,95%
same,remaining binding at 10 µM,DLK,92%
same,remaining binding at 10 µM,CAMK2G,58%
same,remaining binding at 10 µM,PIM3,23%
same,remaining binding at 10 µM,DCAMKL1,92%
same,inhibition of hERG current,hERG,~42%
